From patent US10335482B2, “Method of inducing an anti-HIV-1 immune response comprising administering a C5/TM-GP41 peptide dimer” (priority 2012, dated 2019)
Bridge positions count the residues as written; N and C are the ends. Ends that are not written are not given here. I, II: the chains in the order shown.

Key:
[1] = tested on: Anti-C5/gp41 sera from BI400-B immunized rabbits; test: Competitive ELISA for rabbit sera after immunization with BI400-B; format: binding; details: antigen 10-1000 μM preincubated with rabbit serum; FIG. 3
Description: 50-100 μl of a mixture of BI400-015 and -201 (pre-incubated in Coating buffer—0.05M Na2CO3 pH9.6; denoted CB—in cold at 16 μg/ml for each peptide 1-3 days prior to coating) or just CB (background control) was used for coating wells in microtiter plates at 4° C. overnight. Plates were then washed 3× with washing buffer (PBS+1% v/v Triton-X100; denoted WB), followed by 2 h blocking at room temperature (RT) with 200 μl/well of blocking buffer (PBS+1% w/v BSA). Plates were then washed 3× with WB, followed by 1 h incubation at 37° C. with 60-100 μl/well of added rabbit serum samples (diluted 1:10-1:250 final concentration) preincubated together (4° C. overnight) with serial dilutions (ranging from 10-1000 μM final concentration) of 400-SEQ.B, BI400-015, BI400-201, BI400-204d, recombinant gp41 (Shin-Won Scientific, SWO 102 gp41), BI301-23 (irrelevant protein; control), no peptide (i.e. PBS; control), LTNP-sera pools (diluted 1:10 final concentration), or Blood donor sera-pools (diluted 1:10 final concentration; control). Plates were then washed 6× with WB, followed by 1 h incubation at RT with 70 μl/well of Alkaline Phosphatase-conjugated Goat-anti-Rabbit-Ig (6 μg/ml; Dako D0487). […] Plates were finally quenched by adding 100 μl/well of Quench solution (0.1M TRIS+0.1M EDTA+0.5M NaOH+0.01% w/v NaN3; pH14), followed by ELISA reader (ASYS UVM 340) at 550 nm.

HIV specific T-cells = details: IMiD present during stimulation with dendritic cells presenting Gag- or Nef-specific peptides; cited from earlier work
[2] = Toxicity of the dipeptide in mice; format: in vivo, NMFI female mice; details: injection, 100 μg per kg bodyweight, 4 mg/ml in 0.9% NaCl
Description: The dipeptide of Example 20 was diluted in 0.9% NaCl to a test solution concentration of 4 mg/ml. The peptide was administered by injection to NMFI female mice in a dose of 100 μg per kg bodyweight.

Compound | inhibition of antibody binding to C5/gp41 (015/201) by antigen [1] | function of the T-cells (HIV specific T-cells) | other results
201: gp41 peptide (DRPEGIEEEGGERDR) [compound 201] | could be inhibited |  | 
Nc1cccc2c1CN(C1CCC(=O)NC1=O)C2=O (centres unmarked) [Lenalidomide] |  | a number of improvements in the function of the T-cells | 
Nc1cccc2c1C(=O)N(C1CCC(=O)NC1=O)C2=O (centres unmarked) [pomalidomide] |  | a number of improvements in the function of the T-cells | 
GGAIVNGSLADDDIVI [204d, peptide derived from C2] | could be inhibited |  | 
I: WIIPGLNPLVGGGKLYSPTSILCG-NH2 / II: KALGPGATLQTPWTACQGVG-NH2 (disulfide I:23-II:16) [Example 20] |  |  | toxicological effects [2]: No toxicological effects were observed
